Experiments:
[1] = tested on: high molecular weight polyubiquitinated proteins in SKOV3 cells; test: Anti-ubiquitin immunoblot, SKOV3; type: cell-based; details: Up284 and RA475 0.5 and 1 μM, RA190 1 μM
Description: (§1) Cell lysate prepared in MPER (Pierce) from each sample was normalized by total protein concentration using the bicinchoninic acid assay and bovine serum albumin standards. Normalized samples were subjected to SDS-PAGE, transferred to PVDF membranes and analyzed by Western blot using antibodies specific to ubiquitin (P4D1, sc-8017, Santa Cruz), PARP (#9542, […]), actin (#66009, Protein Tech Group), Tubulin(#66031, Protein Tech Group), ADRM1/RPN13 (D9Z1U, #12019, Cell Signaling), USP14 (Cell Signal, # 8159), Annexin V (#559763, BD Pharmingen), and for secondary antibodies we utilized either horseradish peroxidase (HRP)-linked anti-mouse IgG or anti-rabbit IgG (GE Healthcare UK Ltd), HRP-linked streptavidin (N100, Thermo Fisher) at the recommended dilution (1:5000).
(§2) Accumulation of high molecular weight polyubiquitinated proteins (polyUb) is a classical phenomenon of proteasome function inhibition due to the stabilization of its substrate.
Fig 3 Impact of RA475 on proteasome function. […] Actin was used as loading control. […] C) 4T1 and HCC1806 cells stably expressing 4UbFL were treated with compounds at indicated doses for 4 h and imaged by IVIS200 after the addition of luciferin substrate (50 μL, 7mg/mL in PBS). […] After a 4 h incubation, the cells were lysed and the luciferase activity in each cell lysate was determined with a luciferase assay kit (Promega) according to the manufacturer’s instructions. Bioluminescence was measured by using a luminometer (Glomax Multidetection system, Promega) E) A patch was shaved of hair on one leg of CD-1 mice, and 10 μg 4UbFL plasmid in 20 μL of PBS was injected into the quadriceps femoralis muscle followed immediately by injection of the 2 Needle Array to 5 mm depth encompassing the injection site and square wave electroporation (ElectroSquarePorator 833, BTX-2 Needle array 5mm gap, Harvard apparatus) delivered as eight pulses at 106V for 20 ms with 200 ms intervals. […] Equally sized areas were analyzed using Living Image 2.20 software. […]

[2] = human and mouse microsomes; cited from earlier work
[3] = cited from earlier work
[4] = tested on: high molecular weight polyubiquitinated proteins in OVCAR3 cells; test: Anti-ubiquitin immunoblot, OVCAR3; type: cell-based, human; details: Up284 0.5 μM, bortezomib 0.25 μM, ixazomib 0.25 μM, RA475 0.5 or 1 μM
Description: as §1, §2
Fig 3 Impact of RA475 on proteasome function. […] Actin was used as loading control. […] C) 4T1 and HCC1806 cells stably expressing 4UbFL were treated with compounds at indicated doses for 4 h and imaged by IVIS200 after the addition of luciferin substrate (50 μL, 7mg/mL in PBS). D) Sub-confluent cultures of ES2 cells stably expressing 4UbFL were seeded at 10,000 cells/well in 96-well microtiter plates. At 18 h post transfection, cells were treated with compounds or vehicle (DMSO) at the doses indicated. After a 4 h incubation, the cells were lysed and the luciferase activity in each cell lysate was determined with a luciferase assay kit (Promega) according to the manufacturer’s instructions. Bioluminescence was measured by using a luminometer (Glomax Multidetection system, Promega) E) A patch was shaved of hair on one leg of CD-1 mice, and 10 μg 4UbFL plasmid in 20 μL of PBS was injected into the quadriceps femoralis muscle followed immediately by injection of the 2 Needle Array to 5 mm depth encompassing the injection site and square wave electroporation (ElectroSquarePorator 833, BTX-2 Needle array 5mm gap, Harvard apparatus) delivered as eight pulses at 106V for 20 ms with 200 ms intervals. One day post electroporation, mice were anesthetized with isoflurane, injected IP with luciferin (0.3 mg in 100 μL water) and optical imaging was performed to determine basal level luciferase expression. Images were acquired for 10 min with a Xenogen IVIS 200 (Caliper, Hopkinton, MA). Equally sized areas were analyzed using Living Image 2.20 software. Mice were imaged weekly during treatment. […]

MDA-MB-468 cells = test: Surface Annexin V display by flow cytometry, MDA-MB-468; type: cell-based; details: MDA-MB-468, 12 h; RA475 1 or 2 μM, ixazomib 1 μM
Experimental: The percentage of cells initiating apoptosis was assessed with the annexin V FITC assay kit. The cells (2 × 10^5 cells/well) were treated with the described compounds at selected concentrations for 12 h or 16 h, as indicated. The cells were then collected, washed with PBS, resuspended in 100 μL of annexin V-FITC and 7-AAD dual-stain solution (3 μL Annexin V and 3 μL 7AAD, Catalog Number; 559763-BD bioscience), and incubated 20 min in the dark. The samples were then analyzed via flow cytometry using FlowJo V10 software. All experiments were repeated three times.
Supplementary file pone.0305710.s006.tif: S6 Fig RA475 induced apoptosis in a triple negative breast cancer cell line. […] (TIF)

RPN13 = target: T1, RPN13 (Homo sapiens, UniProt Q16186); test: Up284B competition labelling in ES2 and SKOV3 cell lysate; type: binding; details: titrated RA475, bortezomib 1 μM, Up284B 5 μM
T1 construct: performed the labeling assay after treating ovarian cancer cell lysates (ES2 and SKOV3) in the presence of titrated doses of RA475; endogenous in cells; host or cells: ES2 and SKOV3 ovarian cancer cell lysates
Experimental: Clarified cell lysate in MPER buffer (Pierce) was pretreated with streptavidin-coated magnetic beads for 45 min at 4°C to deplete non-specific biotinylated proteins in the cell lysate. […] Next, the samples were mixed with Laemmli sample buffer (BioRad) and boiled for 5 min. The proteins were separated using a 4–15% Bio-Rad Mini-PROTEAN SDS-PAGE gel (1 h at 100 V), and transferred to PVDF membrane overnight at 4°C (24 V). The membrane was blocked with 5% (w/v) BSA in phosphate buffered saline containing 0.1% (v/v) Tween 20 (PBST) for 1 h at RT, and washed for 20 min (3X with PBST). Then the membrane was probed with HRP-streptavidin (1:10,000 in PBST) for 1 h at RT, washed for 30 min (3X with PBST), and developed using HyGLO chemiluminescent detection reagent (Denville) and visualized using a Biorad Chemidoc imager.
Fig 2 RA475 binds to RPN13 and induces rapid apoptosis. […] C, D) RA475 competition labelling experiment. C) ES2 D) SKOV3 clarified cell lysate (40 μg/sample) in MPER buffer was pretreated with streptavidin-coated magnetic beads for 45 min at 4°C to deplete non-specific biotinylated proteins in the cell lysate. […] Next, the samples were mixed with Laemmli sample buffer (BioRad) and boiled for 5 min. The proteins were separated using a 4–15% Bio-Rad Mini-PROTEAN SDS-PAGE gel (1 h at 100 V), and transferred to PVDF membrane overnight at 4°C (24 V). […]

T1 sequence (Q16186 whole entry): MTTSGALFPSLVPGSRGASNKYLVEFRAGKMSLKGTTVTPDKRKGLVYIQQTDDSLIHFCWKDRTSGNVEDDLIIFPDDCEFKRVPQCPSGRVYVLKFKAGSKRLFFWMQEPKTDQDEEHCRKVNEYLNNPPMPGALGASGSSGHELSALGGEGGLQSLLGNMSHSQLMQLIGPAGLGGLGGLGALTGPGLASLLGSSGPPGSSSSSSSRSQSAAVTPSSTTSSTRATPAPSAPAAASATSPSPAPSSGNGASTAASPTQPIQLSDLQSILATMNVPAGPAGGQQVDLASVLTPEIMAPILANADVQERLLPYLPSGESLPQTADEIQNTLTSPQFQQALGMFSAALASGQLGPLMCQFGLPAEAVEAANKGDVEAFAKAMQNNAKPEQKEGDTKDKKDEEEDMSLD

competition with Up284B for binding to RPN13 (RPN13) | SMILES | accumulation of high molecular weight polyubiquitinated proteins [1] | breakdown in microsomes compared with RA475 [2] | access to the brain [3] | forms of polyUb induced [4] | apoptosis by surface Annexin V display (MDA-MB-468 cells) | concentration in human cerebrospinal fluid and murine brain tissue, % of serum concentrations [3]
– | Cl.N[C@@H](Cc1ccccc1)C(=O)N1C/C(=C/c2ccc(Cl)c(Cl)c2)C(=O)/C(=C\c2ccc(Cl)c(Cl)c2)C1 [RA190] | robust accumulation of polyUb | more rapidly broken down | – | – | – | –
– | CC(C)C[C@H](NC(=O)CNC(=O)c1cc(Cl)ccc1Cl)B(O)O [ixazomib] | – | – | mostly excluded from the brain | only induced the smaller poly Ub forms, typically <250kDa | initiated apoptosis | –
no impact | CC(C)C[C@H](NC(=O)[C@H](Cc1ccccc1)NC(=O)c1cnccn1)B(O)O [bortezomib] | – | – | – | only induced the smaller poly Ub forms, typically <250kDa | – | 5–7%

Reference: paper PMC11239005, “Preclinical studies of RA475, a guanidine-substituted spirocyclic candidate RPN13/ADRM1 inhibitor for treatment of ovarian cancer” (PLOS ONE, 2024)
